Laboratory results as given in PubChem BioAssay (NCI).
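Values below derive from 48-hour exposures of cells grown in 96-well plates, with endpoints linearly interpolated between the two concentrations bracketing the appropriate inhibition level. GI50: concentration for 50% inhibition of growth. TGI is the concentration that stops growth completely.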

Assays:
Assay in all cases: NCI tumour cell line growth inhibition, 48 h
[1] = test system: 786-0 renal
[2] = test system: A498 renal
[3] = test system: A549 NSCLC
[4] = test system: ACHN renal
[5] = test system: CAKI-1 renal
[6] = test system: CCRF-CEM leukemia
[7] = test system: COLO 205 colon
[8] = test system: DU-145 prostate
[9] = test system: EKVX NSCLC
[10] = test system: HCC-2998 colon
[11] = test system: HCT-116 colon
[12] = test system: HCT-15 colon
[13] = test system: HL-60(TB) leukemia
[14] = test system: HOP-62 NSCLC
[15] = test system: HOP-92 NSCLC
[16] = test system: HS 578T breast
[17] = test system: HT29 colon
[18] = test system: IGROV1 ovarian
[19] = test system: K-562 leukemia
[20] = test system: KM12 colon
[21] = test system: LOX IMVI melanoma
[22] = test system: MALME-3M melanoma
[23] = test system: MDA-MB-231 breast
[24] = test system: MDA-MB-435
[25] = test system: MDA-N
[26] = test system: MOLT-4 leukemia
[27] = test system: NCI-H226 lung
[28] = test system: NCI-H23 lung
[29] = test system: NCI-H460 lung
[30] = test system: NCI-H522 lung
[31] = test system: NCI/ADR-RES ovarian
[32] = test system: OVCAR-4 ovarian
[33] = test system: OVCAR-5 ovarian
[34] = test system: OVCAR-8 ovarian
[35] = test system: PC-3 prostate
[36] = test system: RPMI-8226 leukemia
[37] = test system: RXF 393 renal
[38] = test system: SF-268 CNS
[39] = test system: SF-295 CNS
[40] = test system: SF-539 CNS
[41] = test system: SK-MEL-2 melanoma
[42] = test system: SK-MEL-28 melanoma
[43] = test system: SK-MEL-5 melanoma
[44] = test system: SK-OV-3 ovarian
[45] = test system: SN12C renal
[46] = test system: SNB-19 CNS
[47] = test system: SNB-75 CNS
[48] = test system: SR leukemia
[49] = test system: SW-620 colon
[50] = test system: T-47D breast
[51] = test system: TK-10 renal
[52] = test system: U251 CNS
[53] = test system: UACC-257 melanoma
[54] = test system: UACC-62 melanoma
[55] = test system: UO-31 renal
[56] = test system: M14 melanoma
[57] = test system: MCF7 breast
[58] = test system: BT-549 breast
[59] = test system: OVCAR-3 ovarian

Structure (SMILES): COc1ccc(/C(Cl)=C(\CNc2ccccn2)c2ccccc2)cc1OC
- TGI [1]: > 100 µM
- TGI [2]: > 100 µM
- TGI [3]: > 100 µM
- TGI [4]: > 100 µM
- TGI [5]: > 100 µM
- TGI [6]: > 100 µM
- TGI [7]: > 100 µM
- TGI [8]: > 100 µM
- TGI [9]: > 100 µM
- TGI [10]: > 100 µM
- TGI [11]: > 100 µM
- TGI [12]: > 100 µM
- TGI [13]: > 100 µM
- TGI [14]: > 100 µM
- TGI [15]: > 100 µM
- TGI [16]: > 100 µM
- TGI [17]: > 100 µM
- TGI [18]: > 100 µM
- TGI [19]: > 100 µM
- TGI [20]: > 100 µM
- TGI [21]: > 100 µM
- TGI [22]: > 100 µM
- TGI [23]: > 100 µM
- TGI [24]: > 100 µM
- TGI [25]: > 100 µM
- TGI [26]: > 100 µM
- TGI [27]: > 100 µM
- TGI [28]: > 100 µM
- TGI [29]: > 100 µM
- TGI [30]: > 100 µM
- TGI [31]: > 100 µM
- TGI [32]: > 100 µM
- TGI [33]: > 100 µM
- TGI [34]: > 100 µM
- TGI [35]: > 100 µM
- TGI [36]: > 100 µM
- TGI [37]: > 100 µM
- TGI [38]: > 100 µM
- TGI [39]: > 100 µM
- TGI [40]: > 100 µM
- TGI [41]: > 100 µM
- TGI [42]: > 100 µM
- TGI [43]: > 100 µM
- TGI [44]: > 100 µM
- TGI [45]: > 100 µM
- TGI [46]: > 100 µM
- TGI [47]: > 100 µM
- TGI [48]: > 100 µM
- TGI [49]: > 100 µM
- TGI [50]: > 100 µM
- TGI [51]: > 100 µM
- TGI [52]: > 100 µM
- TGI [53]: > 100 µM
- TGI [54]: > 100 µM
- TGI [55]: > 100 µM

Structure (SMILES): Nc1ccc(-c2nc3ccc(Cc4ccc5nc(-c6ccc(N)cc6)oc5c4)cc3o2)cc1
- TGI [1]: > 100 µM
- TGI [2]: > 100 µM
- TGI [3]: > 100 µM
- TGI [4]: > 100 µM
- TGI [5]: > 100 µM
- TGI [6]: > 100 µM
- TGI [7]: > 100 µM
- TGI [8]: > 100 µM
- TGI [10]: > 100 µM
- TGI [11]: > 100 µM
- TGI [12]: > 100 µM
- TGI [15]: > 100 µM
- TGI [17]: > 100 µM
- TGI [19]: > 100 µM
- TGI [20]: > 100 µM
- TGI [21]: > 100 µM
- TGI [56]: > 100 µM
- TGI [22]: > 100 µM
- TGI [57]: > 100 µM
- TGI [23]: > 100 µM
- TGI [24]: > 100 µM
- TGI [25]: > 100 µM
- TGI [26]: > 100 µM
- TGI [27]: > 100 µM
- TGI [28]: > 100 µM
- TGI [29]: > 100 µM
- TGI [30]: > 100 µM
- TGI [31]: > 100 µM
- TGI [32]: > 100 µM
- TGI [33]: > 100 µM
- TGI [34]: > 100 µM
- TGI [35]: > 100 µM
- TGI [36]: > 100 µM
- TGI [37]: > 100 µM
- TGI [38]: > 100 µM
- TGI [39]: > 100 µM
- TGI [40]: > 100 µM
- TGI [41]: > 100 µM
- TGI [42]: > 100 µM
- TGI [44]: > 100 µM
- TGI [45]: > 100 µM
- TGI [46]: > 100 µM
- TGI [48]: 41.2 µM
- TGI [49]: > 100 µM
- TGI [51]: > 100 µM
- TGI [52]: > 100 µM
- TGI [53]: > 100 µM
- TGI [54]: > 100 µM
- TGI [55]: > 100 µM

Structure (SMILES): CC#CC(=O)N[C@H]1CCCN(c2c(F)cc(C(N)=O)c3[nH]c(C)c(C)c23)C1
- GI50 [1]: 19 µM
- TGI [1]: 56.6 µM
- GI50 [2]: 12 µM
- TGI [2]: 26.6 µM
- GI50 [3]: 21.3 µM
- TGI [3]: 70.2 µM
- GI50 [4]: 16.4 µM
- TGI [4]: 42.8 µM
- GI50 [58]: 14.9 µM
- TGI [58]: 30.3 µM
- GI50 [5]: 13.4 µM
- TGI [5]: 34.1 µM
- GI50 [6]: 27.5 µM
- TGI [6]: 85 µM
- GI50 [7]: 21.3 µM
- TGI [7]: 47 µM
- GI50 [8]: 26.1 µM
- TGI [8]: 88.5 µM
- GI50 [9]: 18.3 µM
- TGI [9]: 45.9 µM
- GI50 [10]: 16.6 µM
- TGI [10]: 30.7 µM
- GI50 [11]: 16 µM
- TGI [11]: 31.2 µM
- GI50 [12]: 15.9 µM
- TGI [12]: 32.9 µM
- GI50 [13]: 21.4 µM
- TGI [13]: 46 µM
- GI50 [14]: 24.9 µM
- TGI [14]: > 100 µM
- GI50 [15]: 15.6 µM
- TGI [15]: 64.7 µM
- GI50 [16]: 16.4 µM
- TGI [16]: 83.3 µM
- GI50 [17]: 25 µM
- TGI [17]: 72.3 µM
- GI50 [18]: 14 µM
- TGI [18]: 31.6 µM
- GI50 [19]: 26.8 µM
- TGI [19]: > 100 µM
- GI50 [20]: 14.3 µM
- TGI [20]: 46.4 µM
- GI50 [21]: 14.9 µM
- TGI [21]: 28.1 µM
- GI50 [56]: 18.6 µM
- TGI [56]: 42 µM
- GI50 [22]: 16.2 µM
- TGI [22]: 34.3 µM
- GI50 [57]: 17.3 µM
- TGI [57]: 36 µM
- GI50 [23]: 14 µM
- TGI [23]: 29.1 µM
- GI50 [24]: 16.6 µM
- TGI [24]: 34 µM
- GI50 [26]: 18.8 µM
- TGI [26]: 93.6 µM
- GI50 [27]: 21.1 µM
- TGI [27]: 51.6 µM
- GI50 [28]: 19.5 µM
- TGI [28]: 41.8 µM
- GI50 [29]: 18.1 µM
- TGI [29]: 33.4 µM
- GI50 [30]: 14.4 µM
- TGI [30]: 34.1 µM
- GI50 [31]: 19.9 µM
- TGI [31]: 49.6 µM
- GI50 [59]: 21.9 µM
- TGI [59]: 63.7 µM
- GI50 [32]: 22.5 µM
- TGI [32]: 81.3 µM
- GI50 [33]: 23 µM
- TGI [33]: 88.5 µM
- GI50 [34]: 26.1 µM
- TGI [34]: 94.7 µM
- GI50 [35]: 21.5 µM
- TGI [35]: 62.2 µM
- GI50 [36]: 16.5 µM
- TGI [36]: 44.8 µM
- GI50 [37]: 12.6 µM
- TGI [37]: 26.6 µM
- GI50 [38]: 17.4 µM
- TGI [38]: 45.1 µM
- GI50 [39]: 27.3 µM
- TGI [39]: 74.5 µM
- GI50 [40]: 13.3 µM
- TGI [40]: 28.4 µM
- GI50 [41]: 16.4 µM
- TGI [41]: 35.7 µM
- GI50 [42]: 17.4 µM
- TGI [42]: 35.6 µM
- GI50 [43]: 17.9 µM
- TGI [43]: 31.9 µM
- GI50 [44]: 14.4 µM
- TGI [44]: 59.6 µM
- GI50 [45]: 20.4 µM
- TGI [45]: 58.2 µM
- GI50 [46]: 15.3 µM
- TGI [46]: 28.6 µM
- GI50 [47]: 7.66 µM
- TGI [47]: 21.3 µM
- GI50 [48]: 17.6 µM
- TGI [48]: > 100 µM
- GI50 [49]: 19.8 µM
- TGI [49]: 39 µM
- GI50 [50]: 13.6 µM
- TGI [50]: 44.3 µM
- GI50 [51]: 24.5 µM
- TGI [51]: 95.7 µM
- GI50 [52]: 17.3 µM
- TGI [52]: 36.3 µM
- GI50 [53]: 14.5 µM
- TGI [53]: 34.9 µM
- GI50 [54]: 14.4 µM
- TGI [54]: 28.5 µM
- GI50 [55]: 15.9 µM
- TGI [55]: > 100 µM
